Where two headings read alike, the source gives them in different places.
Tests used:
aromatase = target: T1, aromatase (Homo sapiens, UniProt P11511); assay: Aromatase activity in JEG3 choriocarcinoma cells (Protocol 6); type: cell-based
T1 construct: Intact monolayers of JEG3 cells (2.5×10^6 cells) in triplicate 25 cm^2 tissue culture flasks; host or cells: JEG3 choriocarcinoma cells
T1 sequence (P11511 1-503): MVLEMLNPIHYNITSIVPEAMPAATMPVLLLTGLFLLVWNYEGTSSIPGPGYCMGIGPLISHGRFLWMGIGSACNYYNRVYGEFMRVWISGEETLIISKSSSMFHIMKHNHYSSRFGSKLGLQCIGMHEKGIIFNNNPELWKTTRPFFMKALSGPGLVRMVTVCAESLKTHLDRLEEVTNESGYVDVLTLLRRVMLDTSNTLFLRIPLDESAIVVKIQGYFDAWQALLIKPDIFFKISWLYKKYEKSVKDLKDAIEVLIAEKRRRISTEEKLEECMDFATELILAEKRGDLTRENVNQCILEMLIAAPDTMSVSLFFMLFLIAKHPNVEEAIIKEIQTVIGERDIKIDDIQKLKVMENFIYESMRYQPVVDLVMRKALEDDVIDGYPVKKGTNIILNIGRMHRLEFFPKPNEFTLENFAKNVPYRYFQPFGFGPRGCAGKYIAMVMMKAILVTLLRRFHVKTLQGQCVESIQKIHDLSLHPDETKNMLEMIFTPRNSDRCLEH
Protocol: Aromatase activity is measured in JEG3 choriocarcinoma cells, obtained from the ATCC. […] Cells are maintained in Minimal Essential Medium (MEM, Flow Laboratories, Irvine, Scotland) containing 20 mM HEPES, 10% foetal bovine serum, 2 mM glutamine, non-essential amino acids and 0.075% sodium bicarbonate. Intact monolayers of JEG3 cells (2.5×10^6 cells) in triplicate 25 cm^2 tissue culture flasks are washed with Earle's Balanced salt solution (EBSS, from ICN Flow, High Wycombe, UK) and incubated with [1β-^3H] androstenedione (2-5 nM, 26 Ci/mmol, New England Nuclear, Boston, Mass., USA) for 30 min with inhibitors over the range of 10 pm-10 μM. During the aromatase reaction, ^3H2O is liberated which can he quantified using a liquid scintillation spectrometer (Beckman-Coulter, High Wycombe, Bucks. UK). […] The number of cell nuclei per flask is determined using a Coulter Counter after treating the cell monolayers with Z aponin.
Unpaired Student's t test was used to test the statistical significance of results. IC50 values were calculated as the concentration of inhibitor required to obtain a 50% inhibition of aromatase activity.

steroid sulphatase (STS) = target: T2, steroid sulphatase (STS) (Homo sapiens, UniProt P08842); assay: Inhibition of steroid sulphatase activity in JEG3 cells (Protocol 1); type: cell-based; conditions: for inhibition at 10 µM: JEG-3, read-out: % STS INHIBITION (10 μM)
T2 construct: Intact monolayers of JEG3 cells in triplicate 25 cm^2 tissue culture flasks; host or cells: JEG3 choriocarcinoma cells
T2 sequence (P08842 22-583): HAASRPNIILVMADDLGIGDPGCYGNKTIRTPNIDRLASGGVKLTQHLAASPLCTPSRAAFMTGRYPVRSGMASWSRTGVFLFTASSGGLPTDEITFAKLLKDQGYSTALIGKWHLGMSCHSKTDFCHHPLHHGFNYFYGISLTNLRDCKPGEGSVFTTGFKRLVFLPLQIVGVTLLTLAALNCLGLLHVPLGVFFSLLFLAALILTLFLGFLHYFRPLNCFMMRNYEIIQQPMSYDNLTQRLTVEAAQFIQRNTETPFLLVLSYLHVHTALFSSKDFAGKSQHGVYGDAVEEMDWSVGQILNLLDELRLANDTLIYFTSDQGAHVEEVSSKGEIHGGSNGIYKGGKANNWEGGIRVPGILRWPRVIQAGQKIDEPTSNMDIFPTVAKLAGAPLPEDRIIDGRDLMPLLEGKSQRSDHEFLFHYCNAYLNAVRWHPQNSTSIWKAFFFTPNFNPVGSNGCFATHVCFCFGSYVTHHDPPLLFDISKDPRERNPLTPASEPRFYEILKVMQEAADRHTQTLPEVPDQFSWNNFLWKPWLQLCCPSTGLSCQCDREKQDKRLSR
Protocol: Steroid sulphatase activity is measured in vitro using intact JEG3 choriocarcinoma cells. This cell line may be used to study the control of human breast cancer cell growth.
Cells are maintained in Minimal Essential Medium (MEM) (Flow Laboratories, Irvine, Scotland) containing 20 mM HEPES, 5% foetal bovine serum, 2 mM glutamine, non-essential amino acids and 0.075% sodium bicarbonate. Up to 30 replicate 25 cm2 tissue culture flasks are seeded with approximately 1×10^5 cells/flask using the above medium. Cells are grown to 80% confluency and the medium is changed every third day.
Intact monolayers of JEG3 cells in triplicate 25 cm^2 tissue culture flasks are washed with Earle's Balanced Salt Solution (EBSS from ICN Flow, High Wycombe, U.K.) and incubated for 3-4 hours at 37° C. with 5 pmol (7×10^5 dpm) [6,7-3H]oestrone-3-sulphate (specific activity 60 Ci/mmol from New England Nuclear, Boston, Mass., U.S.A.) in serum-free MEM (2.5 ml) together with oestrone-3-sulphamate (11 concentrations: 0; 1 fM; 0.01 pM; 0.1 pM; 1 pM; 0.01 nM; 0.1 nM; 1 nM; […]). After incubation each flask is cooled and the medium (1 ml) is pipetted into separate tubes containing [14C]oestrone (7×10^3 dpm) (specific activity 97 Ci/mmol from Amersham International Radiochemical Centre, Amersham, U.K.). The mixture is shaken thoroughly for 30 seconds with toluene (5 ml). Experiments have shown that >90% [14C] oestrone and <0.1% [3H]oestrone-3-sulphate is removed from the aqueous phase by this treatment. A portion (2 ml) of the organic phase is removed, evaporated and the 3H and 14C content of the residue determined by scintillation spectrometry. The mass of oestrone-3-sulphate hydrolysed was calculated from the 3H counts obtained (corrected for the volumes of the medium and organic phase used, and for recovery of [14C] oestrone added) and the specific activity of the substrate. Each batch of experiments includes incubations of microsomes prepared from a sulphatase-positive human placenta (positive control) and flasks without cells (to assess apparent non-enzymatic hydrolysis of the substrate). The number of cell nuclei per flask is determined using a Coulter Counter after treating the cell monolayers with Zaponin. One flask in each batch is used to assess cell membrane status and viability using the Trypan Blue exclusion method (Phillips, H. J. (1973) In: Tissue culture and applications, [eds: Kruse, D. F. & Patterson, M. K.]; pp. 406-408; Academic Press, New York).
Results for steroid sulphatase activity are expressed as the mean±1 S.D. of the total product (oestrone+oestradiol) formed during the incubation period (3-4 hours) calculated for […] and, for values showing statistical significance, as a percentage reduction (inhibition) over incubations containing no oestrone-3-sulphamate. Unpaired Student's t-test was used to test the statistical significance of results.

steroid sulphatase = target: T3, steroid sulphatase (Homo sapiens, UniProt P08842); conditions: versus EMATE; cited from earlier work
T3 sequence (P08842 22-583): T2 sequence (P08842 22-583)

uterus = conditions: cited from earlier work
E1-STS = target: T4, E1-STS (Homo sapiens, UniProt P08842); conditions: 0.1 nM; cited from earlier work
T4 construct: host or cells: MCF-7 cells
T4 sequence (P08842 22-583): T2 sequence (P08842 22-583)

[1] = target: T5, oestrone sulphatase (STS) (Rattus norvegicus, UniProt P15589); assay: Inhibition of oestrone sulphatase activity in vivo (Protocol 3)
T5 construct: samples of liver tissue were obtained and oestrone sulphatase activity assayed; from tissue; host or cells: rat liver
T5 sequence (P15589 20-577): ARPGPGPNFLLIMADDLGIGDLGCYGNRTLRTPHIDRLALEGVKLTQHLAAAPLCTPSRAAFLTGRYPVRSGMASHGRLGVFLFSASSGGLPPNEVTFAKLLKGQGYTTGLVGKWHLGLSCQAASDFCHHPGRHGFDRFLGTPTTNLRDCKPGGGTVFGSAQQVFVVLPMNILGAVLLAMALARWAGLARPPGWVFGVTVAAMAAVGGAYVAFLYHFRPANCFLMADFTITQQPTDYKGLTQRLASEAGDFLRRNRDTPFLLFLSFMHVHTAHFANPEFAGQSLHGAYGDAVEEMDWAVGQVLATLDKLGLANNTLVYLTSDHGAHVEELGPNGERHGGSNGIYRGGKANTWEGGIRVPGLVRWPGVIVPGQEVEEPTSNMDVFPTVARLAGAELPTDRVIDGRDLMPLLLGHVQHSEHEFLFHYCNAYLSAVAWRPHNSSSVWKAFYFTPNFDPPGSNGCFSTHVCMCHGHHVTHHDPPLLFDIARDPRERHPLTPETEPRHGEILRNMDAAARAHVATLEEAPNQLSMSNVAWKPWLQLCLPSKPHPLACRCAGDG
Protocol: The compounds of the present invention may be studied using an animal model, in particular in ovariectomised rats. In this model compounds which are oestrogenic stimulate uterine growth.
At the end of the study samples of liver tissue were obtained and oestrone sulphatase activity assayed using 3H oestrone sulphate as the substrate as previously described (see PCT/GB95/02638).
In vivo data were recorded using the above described aromatase and STS animals assays. The relevant compounds were administered and for each animal both aromatase and STS activities were determined.

[2] = JEG-3; read-out: % AROMATASE INHIBITION (10 μM)
[3] = JEG-3, read-out: % AROMATASE INHIBITION (10 μM)

Structure (SMILES): CC(C)(C#N)c1cc(CSc2ccc(OS(N)(=O)=O)c(Cl)c2)cc(Cn2cncn2)c1
- inhibition at 10 µM (aromatase; [2]): 99.9 ± 0.2%
- inhibition at 10 µM (steroid sulphatase (STS)): 82.3 ± 0.8%

Structure (SMILES): CC(C)(C#N)c1cc(COc2ccc(OS(N)(=O)=O)cc2)cc(Cn2cncn2)c1
- inhibition at 10 µM (aromatase; [2]): 99.8 ± 0.2%
- inhibition at 10 µM (steroid sulphatase (STS)): < 10%

Structure (SMILES): COc1cc2c(cc1OS(N)(=O)=O)CC[C@@H]1[C@@H]2CC[C@]2(C)C(=O)CC[C@@H]12 [2-methoxyoestrone-3-O-sulphamate]
- potency as steroid sulphatase inhibitor relative to EMATE (steroid sulphatase): equipotent with EMATE
- oestrogenicity (uterus; rat, in vivo): devoid of oestrogenicity

Structure (SMILES): CC12CCC3c4ccc(OS(N)(=O)=O)cc4CCC3C1CCC2=O (stereo not drawn) [EMATE, oestrone-3-sulphamate]
- oral uterotrophic activity relative to estradiol (uterus; rats, oral, versus estradiol): 100 times
- inhibition of E1-STS activity in intact MCF-7 cells (E1-STS): more than 99%

Structure (SMILES): CC(C)(C#N)c1cc(CSc2ccc(O)cc2)cc(Cn2cncn2)c1 [STX1022]
- IC50 (aromatase; JEG3 cells): 1 nM

Structure (SMILES): CC(C)(C#N)c1cc(CSc2ccc(OS(N)(=O)=O)cc2)cc(Cn2cncn2)c1 [STX1023]
- IC50 (aromatase; JEG3 cells): 3.5 nM
- IC50 (steroid sulphatase (STS); JEG3 cells): > 10000 nM
- inhibition at 10 mg/kg [1]: 87%

Structure (SMILES): N#Cc1ccc(-c2ccc(OS(N)(=O)=O)cc2)cc1Cn1cncn1 [STX1522, Sulfamic acid 4′-cyano-3′-[1,2,4]triazol-1-ylmethyl-biphenyl-4-yl ester]
- inhibition at 10 µM (aromatase; [3]): 98 ± 0.3%
- inhibition at 10 µM (steroid sulphatase (STS)): 96.1 ± 0.3%

Structure (SMILES): CC(C)(C#N)c1cc(Cn2cncn2)cc(-c2ccc(OS(N)(=O)=O)cc2)c1 [STX1523, Sulfamic acid 3′-(cyano-dimethyl-methyl)-5′-[1,2,4]triazol-1-ylmethyl-biphenyl-4-yl ester]
- inhibition at 10 µM (aromatase; [2]): 99.7 ± 0.2%
- inhibition at 10 µM (steroid sulphatase (STS)): 24.4 ± 3.1%

Structure (SMILES): COC(=O)c1cc(Cn2cncn2)cc(NS(=O)(=O)c2ccc(OS(N)(=O)=O)c(F)c2)c1 [STX1528, 3-(3-Fluoro-4-sulfamoyloxy-benzenesulfonylamino)-5-[1,2,4]triazol-1-ylmethyl-benzoic acid methyl ester]
- inhibition at 10 µM (aromatase; [3]): 83.4 ± 1.3%
- inhibition at 10 µM (steroid sulphatase (STS)): < 10%

Structure (SMILES): N#CC1(c2cc(CSc3ccc(OS(N)(=O)=O)cc3)cc(Cn3cncn3)c2)CCC1 [STX1731, 4-((3-((1H-1,2,4-triazol-1-yl)methyl)-5-(1-cyanocyclobutyl)benzyl)sulfanyl)phenyl sulfamate]
- inhibition at 10 µM (aromatase; [2]): 99.5 ± 0.2%
- inhibition at 10 µM (steroid sulphatase (STS)): 21.4 ± 7.9%

Structure (SMILES): N#CC1(c2cc(CSc3ccc(OS(N)(=O)=O)cc3)cc(Cn3cncn3)c2)CC1 [STX1732, 4-((3-((1H-1,2,4-triazol-1-yl)methyl)-5-(1-cyanocyclopropyl)benzyl)sulfanyl)phenyl sulfamate]
- inhibition at 10 µM (aromatase; [2]): 99.8 ± 0.1%
- inhibition at 10 µM (steroid sulphatase (STS)): < 10%

Structure (SMILES): N#CC1(c2cc(CSc3ccc(OS(N)(=O)=O)c(Cl)c3)cc(Cn3cncn3)c2)CCC1 [STX1794, 4-((3-((1H-1,2,4-triazol-1-yl)methyl)-5-(1-cyanocyclobutyl)benzyl)sulfanyl)-2-chlorophenyl sulfamate]
- inhibition at 10 µM (aromatase; [2]): 99.7 ± 0.1%
- inhibition at 10 µM (steroid sulphatase (STS)): 75.3 ± 0.6%

Structure (SMILES): CC(C)(C#N)c1cc(CSc2ccc(OS(N)(=O)=O)c(Br)c2)cc(Cn2cncn2)c1 [STX1795, 4-((3-((1H-1,2,4-triazol-1-yl)methyl)-5-(2-cyanopropan-2-yl)benzyl)sulfanyl)-2-bromophenyl sulfamate]
- inhibition at 10 µM (aromatase; [2]): 100%

Structure (SMILES): COC(=O)c1cc(Cn2cncn2)cc(N(C)S(=O)(=O)c2ccc(OS(N)(=O)=O)cc2)c1 [STX1829, 3-[Methyl-(4-sulfamoyloxy-benzenesulfonyl)-amino]-5-[1,2,4]triazol-1-ylmethyl-benzoic acid methyl ester]
- inhibition at 10 µM (aromatase; [2]): 99.5 ± 0.2%
- inhibition at 10 µM (steroid sulphatase (STS)): 17.6 ± 4%

Structure (SMILES): COC(=O)c1cc(Cn2cncn2)cc(NC(=O)c2ccc(OS(N)(=O)=O)cc2)c1 [STX1830, 3-(4-Sulfamoyloxy-benzoylamino)-5-[1,2,4]triazol-1-ylmethyl-benzoic acid methyl ester]
- inhibition at 10 µM (aromatase; [3]): 52.7 ± 6.7%
- inhibition at 10 µM (steroid sulphatase (STS)): 33.4 ± 5.3%

Structure (SMILES): CC(C)(C#N)c1cc(/C=C/c2ccc(OS(N)(=O)=O)cc2)cc(Cn2cncn2)c1 [STX1833, 4-(3-((1H-1,2,4-triazol-1-yl)methyl)-5-(2-cyanopropan-2-yl)styryl)phenyl sulfamate]
- inhibition at 10 µM (steroid sulphatase (STS)): 21.5 ± 4.7%
